Laboratory results from ChEMBL document CHEMBL1687845, “Carotenoid-related alteration of cell membrane fluidity impacts Staphylococcus aureus susceptibility to host defense peptides” (2011).
≈ marks a conversion by molar mass, not a printed value.

Experiments:
Staphylococcus aureus [1] = assay: Ratio of MIC for methicillin-susceptible Staphylococcus aureus SA147 harboring deltacrtM-pDCerm::crtMN to MIC for wild type methicillin-susceptible Staphylococcus aureus SA144; type: functional
Staphylococcus aureus [2] = assay: Antibacterial activity against methicillin-susceptible Staphylococcus aureus SA146 harboring deltacrtM-pDCerm by Etest; type: functional
Staphylococcus aureus [3] = assay: Antibacterial activity against wild type methicillin-susceptible Staphylococcus aureus SA144 assessed as bacterial survival at 1.25 ug/ml after 2 hrs; type: functional; details: SA144, 2 h
Staphylococcus aureus [4] = assay: Antibacterial activity against methicillin-susceptible Staphylococcus aureus SA147 harboring deltacrtM-pDCerm::crtMN by Etest; type: functional
Staphylococcus aureus [5] = assay: Antibacterial activity against methicillin-susceptible Staphylococcus aureus SA147 harboring deltacrtM-pDCerm::crtMN assessed as bacterial survival at 1.25 ug/ml after 2 hrs; type: functional; details: SA147, 2 h
Staphylococcus aureus [6] = assay: Antibacterial activity against wild type methicillin-susceptible Staphylococcus aureus SA144 assessed as bacterial survival at 0.625 ug/ml after 2 hrs; type: functional; details: SA144, 2 h
Staphylococcus aureus [7] = assay: Antibacterial activity against wild type methicillin-susceptible Staphylococcus aureus SA144 by Etest; type: functional
Staphylococcus aureus [8] = assay: Antibacterial activity against methicillin-susceptible Staphylococcus aureus SA147 harboring deltacrtM-pDCerm::crtMN assessed as bacterial survival at 0.625 ug/ml after 2 hrs; type: functional; details: SA147, 2 h
Staphylococcus aureus [9] = assay: Antibacterial activity against methicillin-susceptible Staphylococcus aureus SA145 harboring crtM deletion mutant assessed as bacterial survival at 0.625 ug/ml after 2 hrs; type: functional; details: SA145, 2 h
Staphylococcus aureus [10] = assay: Antibacterial activity against methicillin-susceptible Staphylococcus aureus SA145 harboring crtM deletion mutant assessed as bacterial survival at 1.25 ug/ml after 2 hrs; type: functional; details: SA145, 2 h
Staphylococcus aureus [11] = assay: Antibacterial activity against methicillin-susceptible Staphylococcus aureus SA145 harboring crtM deletion mutant by Etest; type: functional
Staphylococcus aureus [12] = assay: Antibacterial activity against wild type methicillin-susceptible Staphylococcus aureus SA144 assessed as bacterial survival at 5 ug/ml after 2 hrs; type: functional; details: SA144, 2 h
Staphylococcus aureus [13] = assay: Antibacterial activity against methicillin-susceptible Staphylococcus aureus SA145 harboring crtM deletion mutant assessed as bacterial survival at 5 ug/ml after 2 hrs; type: functional; details: SA145, 2 h
Staphylococcus aureus [14] = assay: Antibacterial activity against methicillin-susceptible Staphylococcus aureus SA147 harboring deltacrtM-pDCerm::crtMN assessed as bacterial survival at 5 ug/ml after 2 hrs; type: functional; details: SA147, 2 h
Staphylococcus aureus [15] = assay: Antibacterial activity against wild type methicillin-susceptible Staphylococcus aureus SA144 assessed as bacterial survival at 2.5 ug/ml after 2 hrs; type: functional; details: SA144, 2 h
Staphylococcus aureus [16] = assay: Antibacterial activity against methicillin-susceptible Staphylococcus aureus SA145 harboring crtM deletion mutant assessed as bacterial survival at 2.5 ug/ml after 2 hrs; type: functional; details: SA145, 2 h
Staphylococcus aureus [17] = assay: Antibacterial activity against methicillin-susceptible Staphylococcus aureus SA147 harboring deltacrtM-pDCerm::crtMN assessed as bacterial survival at 2.5 ug/ml after 2 hrs; type: functional; details: SA147, 2 h
Staphylococcus aureus [18] = assay: Antibacterial activity against methicillin-susceptible Staphylococcus aureus SA147 harboring deltacrtM-pDCerm::crtMN assessed as bacterial survival at 40 ug/ml after 2 hrs; type: functional, organism-based
Staphylococcus aureus [19] = assay: Antibacterial activity against wild type methicillin-susceptible Staphylococcus aureus SA144 assessed as bacterial survival at 40 ug/ml after 2 hrs; type: functional, organism-based
Staphylococcus aureus [20] = assay: Antibacterial activity against methicillin-susceptible Staphylococcus aureus SA145 harboring crtM deletion mutant assessed as bacterial survival at 80 ug/ml after 2 hrs; type: functional, organism-based
Staphylococcus aureus [21] = assay: Antibacterial activity against wild type methicillin-susceptible Staphylococcus aureus SA144 assessed as bacterial survival at 80 ug/ml after 2 hrs; type: functional, organism-based
Staphylococcus aureus [22] = assay: Antibacterial activity against methicillin-susceptible Staphylococcus aureus SA145 harboring crtM deletion mutant assessed as bacterial survival at 40 ug/ml after 2 hrs; type: functional, organism-based
Staphylococcus aureus [23] = assay: Antibacterial activity against methicillin-susceptible Staphylococcus aureus SA147 harboring deltacrtM-pDCerm::crtMN assessed as bacterial survival at 80 ug/ml after 2 hrs; type: functional, organism-based

## CCCCCCCCCC(=O)N[C@@H](Cc1c[nH]c2ccccc12)C(=O)N[C@H](CC(N)=O)C(=O)N[C@@H](CC(=O)O)C(=O)N[C@@H]1C(=O)NCC(=O)N[C@@H](CCCN)C(=O)N[C@@H](CC(=O)O)C(=O)N[C@H](C)C(=O)N[C@@H](CC(=O)O)C(=O)NCC(=O)N[C@H](CO)C(=O)N[C@@H]([C@H](C)CC(=O)O)C(=O)N[C@@H](CC(=O)c2ccccc2N)C(=O)O[C@@H]1C
Staphylococcus aureus [1]
  Ratio: 2
Staphylococcus aureus [2]
  MIC: 0.75 µg/mL (≈ 0.463 µM)
Staphylococcus aureus [3]
  survival at 1.25 µg/mL: 12%
Staphylococcus aureus [4]
  MIC: 1.5 µg/mL (≈ 0.926 µM)
Staphylococcus aureus [5]
  survival at 1.25 µg/mL: 49%
Staphylococcus aureus [6]
  survival at 0.625 µg/mL: 18%
Staphylococcus aureus [7]
  MIC: 0.75 µg/mL (≈ 0.463 µM)
Staphylococcus aureus [8]
  survival at 0.625 µg/mL: 55%
Staphylococcus aureus [9]
  survival at 0.625 µg/mL: 24%
Staphylococcus aureus [10]
  survival at 1.25 µg/mL: 21%
Staphylococcus aureus [11]
  MIC: 0.75 µg/mL (≈ 0.463 µM)

## H-ALYKKFKKKLLKSLKRLG-OH
Staphylococcus aureus [12]
  survival at 5 µg/mL: 11%
Staphylococcus aureus [13]
  survival at 5 µg/mL: 13%
Staphylococcus aureus [14]
  survival at 5 µg/mL: 23%
Staphylococcus aureus [15]
  survival at 2.5 µg/mL: 23%
Staphylococcus aureus [16]
  survival at 2.5 µg/mL: 18%
Staphylococcus aureus [17]
  survival at 2.5 µg/mL: 55%

## POLYMYXIN B
Staphylococcus aureus [18]
  Survival: 25%
Staphylococcus aureus [19]
  Survival: 29%
Staphylococcus aureus [20]
  Survival: 14%
Staphylococcus aureus [21]
  Survival: 13%
Staphylococcus aureus [22]
  Survival: 23%
Staphylococcus aureus [23]
  Survival: 26%
